# Measurements as given in patent publication USRE39021E1, “Hydantoin-enhanced halogen efficacy in pulp and paper applications” (Lonza Inc., priority 1994, dated 2006).
# Columns and labels:
# [1] = Example 5: final total halogen in pulp slurry with N-hydrogen compounds; assay type: physicochemical; settings: for % Residual Halogen / Total Halogen Final: NaOCl to N-hydrogen compound 1:1 molar
# Experimental: (§1) The addition of 5,5-dimethylhydantoin (DMH) to sodium hypochlorite solutions enhances the biocidal activity of sodium hypochlorite. The conditions of this experiment were a modification of ASTM E 600-91. Two biocide solutions were evaluated: NaOCl and NaOCl mixed with DMH in a 0.25:1 molar ratio. The NaOCl and the DMH were mixed prior to pulp introduction. The biocides were introduced to the pulp slurry 10 minutes prior to inoculation with 2×10^6 cfu/ml P. Aeruginosa and E. Aerogenes. The pulp slurry consisted of 1.3% ground aspen wood pulp and 200 ppm rosin adjusted to pH=5.0-5.5 with aluminum sulfate. Bacteria populations were measured 3 hours after pulp slurry inoculation. Final total halogen concentrations were measured at the time of bacterial population plating by sample centrifuging followed by standard DPD analyses. Biocides were neutralized with sodium thiosulfate prior to plating.
# (§2) The conditions were the same as those of Example 1. The molar ratio of the NaOCl to N-hydrogen compound was 1:1.
# [2] = system: P. Aeruginosa and E. Aerogenes; assay: Example 2: bactericidal efficacy of NaOCl added to DMH-treated pulp slurry; assay type: cell-based; settings: for Final Bacteria: NaOCl added to pulp slurry (DMH-treated for 1:1 system)
# Experimental: as §1
# (§3) Prereaction of DMH with NaOCl as described in Example 1 was not required. The conditions of this experiment were in other respects the same as Example 1. The molar ratio in the pulp slurry was 1:1 NaOCl to DMH.
# [3] = system: P. Aeruginosa and E. Aerogenes; assay: Example 7: pulp slurry bactericidal efficacy of N-halohydantoin compound; assay type: cell-based; settings: conditions of Example 1
# Experimental: as §1
# (§4) Specifically, Dantochlor®, a commercial halogenated hydantoin containing predominantly dichlorodimethylhydantoin and dichloroethylmethylhydantoin was used. The conditions were the same as those of Example 1.
# [4] = system: P. Aeruginosa and E. Aerogenes; assay: Example 5: pulp slurry bactericidal efficacy of NaOCl with N-hydrogen compounds (1:1); assay type: cell-based; settings: for log reduction of bacteria: 5 ppm halogen; for log reduction of bacteria / efficacy enhancement over sodium hypochlorite alone: Example 5; for Final Bacteria / efficacy enhancement over sodium hypochlorite alone: NaOCl to N-hydrogen compound 1:1 molar
# Experimental: as §1, §2
# [5] = Example 1: final total halogen in pulp slurry (DPD analyses); assay type: physicochemical; settings: 3 hours after inoculation; for Total Halogen Final: 1.3% aspen pulp slurry pH 5.0-5.5; for % Residual Halogen: pulp slurry pH 5.0-5.5
# Experimental: as §1
# [6] = system: P. Aeruginosa and E. Aerogenes; assay: Example 1: pulp slurry bactericidal efficacy (modified ASTM E 600-91), biocide added 10 minutes prior to inoculation; assay type: cell-based; settings: for Final Bacteria: inoculum 2×10^6 cfu/ml, 3 hours after inoculation
# Experimental: as §1
# [7] = Example 4: halogen consumption in non-inoculated pulp slurry vs NaOCl:DMH molar ratio; assay type: physicochemical; settings: initial total halogen 25.6 ppm as Cl2; pulp slurry not inoculated
# Experimental: as §1, §3
# The experimental conditions were the same as those of Example 2, except that the pulp slurry was not inoculated with bacteria.
# [8] = system: P. Aeruginosa and E. Aerogenes; assay: Example 3: bactericidal efficacy in preinoculated pulp slurry samples; assay type: cell-based; settings: for Final Bacteria: pulp inoculated 5 minutes prior to biocide
# Experimental: as §1
# (§5) The conditions were the same as Example 1 except that the pulp was inoculated with bacteria 5 minutes prior to biocide introduction as opposed to 10 minutes after. Also the NaOCl to DMH mole ratio was increased from 0.25:1 to 1:1.
# [9] = Example 3: final total halogen in preinoculated pulp slurry; assay type: physicochemical; settings: pulp inoculated 5 minutes prior to biocide
# Experimental: as §1, §5
# [10] = Example 2: final total halogen in DMH-treated pulp slurry; assay type: physicochemical; settings: NaOCl added to pulp slurry (DMH-treated for 1:1 system)
# Experimental: as §1, §3
# [11] = Example 7: final total halogen in pulp slurry; assay type: physicochemical; settings: conditions of Example 1
# Experimental: as §1, §4
# bacteria = settings: residual chlorine concentrations of 1.6 ppm as Cl2; U.S. Pat. No. 3,328,294; cited from earlier work
# [12] = initial total halogen 1.0 ppm as Cl2
# [13] = initial total halogen 3.0 ppm as Cl2
# [14] = initial total halogen 5.0 ppm as Cl2
# [15] = initial total halogen 3 ppm as Cl2
# [16] = initial total halogen 5 ppm as Cl2
# [17] = initial total halogen 7.5 ppm as Cl2
# [18] = initial total halogen 10 ppm as Cl2
# [19] = initial total halogen 15 ppm as Cl2
# [20] = initial total halogen 0.8 ppm as Cl2
# [21] = initial total halogen 3.4 ppm as Cl2
# [22] = initial total halogen 16.3 ppm as Cl2
compound,measurement,setting,value
"[Na+].[O-]Cl [NaOCl, sodium hypochlorite]",% Residual Halogen,[1]; [12],0.0%
same,Total Halogen Final,[1]; [12],0.00 ppm as Cl2
same,% Residual Halogen,[1]; [13],0.7%
same,Total Halogen Final,[1]; [13],0.02 ppm as Cl2
same,% Residual Halogen,[1]; [14],0.6%
same,Total Halogen Final,[1]; [14],0.03 ppm as Cl2
same,Final Bacteria,[2]; [15],10^5 cfu/ml
same,Final Bacteria,[2]; [16],10^4 cfu/ml
same,Final Bacteria,[2]; [17],<10^3 cfu/ml
same,Final Bacteria,[2]; [18],<10^3 cfu/ml
same,Final Bacteria,[2]; [19],<10^3 cfu/ml
same,Final Bacteria,[3]; [14],≦10^3 cfu/ml
same,Final Bacteria,[3]; [17],≦10^3 cfu/ml
same,log reduction of bacteria,[4],1 log
same,Final Bacteria,[4]; [12],10^6 cfu/ml
same,Final Bacteria,[4]; [13],10^5 cfu/ml
same,Final Bacteria,[4]; [14],10^5 cfu/ml
same,Total Halogen Final,[5]; [12],0.00 ppm as Cl2
same,% Residual Halogen,[5]; [12],0%
same,Total Halogen Final,[5]; [13],0.00 ppm as Cl2
same,% Residual Halogen,[5]; [13],0%
same,Total Halogen Final,[5]; [14],0.00 ppm as Cl2
same,% Residual Halogen,[5]; [14],0%
same,Total Halogen Final,[5]; [17],0.04 ppm as Cl2
same,% Residual Halogen,[5]; [17],0.5%
same,Total Halogen Final,[5]; [18],0.08 ppm as Cl2
same,% Residual Halogen,[5]; [18],0.8%
same,Final Bacteria,[6]; [12],10^5 cfu/ml
same,Final Bacteria,[6]; [13],10^4 cfu/ml
same,Final Bacteria,[6]; [14],≦10^3 cfu/ml
same,Final Bacteria,[6]; [17],≦10^3 cfu/ml
same,Final Bacteria,[6]; [18],≦10^3 cfu/ml
same,% Residual Halogen,[7],0.4%
same,Total Halogen Final,[7],0.11 ppm as Cl2
same,Final Bacteria,[8]; [20],10^4 cfu/ml
same,Final Bacteria,[8]; [21],<10^3 cfu/ml
same,Final Bacteria,[8]; [22],<10^3 cfu/ml
same,% Residual Halogen,[9]; [20],1.3%
same,Total Halogen Final,[9]; [20],0.01 ppm as Cl2
same,% Residual Halogen,[9]; [21],1.0%
same,Total Halogen Final,[9]; [21],0.03 ppm as Cl2
same,% Residual Halogen,[9]; [22],2.1%
same,Total Halogen Final,[9]; [22],0.34 ppm as Cl2
same,% Residual Halogen,[10]; [15],0.0%
same,Total Halogen Final,[10]; [15],0.00 ppm as Cl2
same,% Residual Halogen,[10]; [16],0.4%
same,Total Halogen Final,[10]; [16],0.02 ppm as Cl2
same,% Residual Halogen,[10]; [17],0.5%
same,Total Halogen Final,[10]; [17],0.06 ppm as Cl2
same,% Residual Halogen,[10]; [18],0.4%
same,Total Halogen Final,[10]; [18],0.04 ppm as Cl2
same,% Residual Halogen,[10]; [19],0.7%
same,Total Halogen Final,[10]; [19],0.11 ppm as Cl2
same,% Residual Halogen,[11]; [14],0.4%
same,Total Halogen Final,[11]; [14],0.02 ppm as Cl2
same,% Residual Halogen,[11]; [17],1%
same,Total Halogen Final,[11]; [17],0.05 ppm as Cl2
"CC1(C)NC(=O)NC1=O [DMH, 5,5-dimethylhydantoin]",increase in efficacy of NaOCl in the presence of DMH,"[2]; 3 ppm with DMH vs 5 ppm in its absence, Example 2",twofold
same,log reduction in bacteria concentration,"[2]; initial halogen concentration 3 ppm, in the presence of DMH, Example 2",2 log
same,increase in efficacy of NaOCl in the presence of DMH,"[6]; 1 ppm halogen with DMH equivalent to 5 ppm halogen alone, Example 1",fivefold
same,log reduction of bacteria,"[8]; dosage 0.8 ppm halogen, in the presence of DMH, preinoculated samples, Example 3",3 log
"NS(=O)(=O)O [Sulfamic acid, sulfamic acid]",efficacy enhancement over sodium hypochlorite alone,[4],no efficacy enhancement
O=S(=O)(O)NCl [N-chlorosulfamate],bacterial concentrations achieved,bacteria,10^3 cfu/ml
"CCC1(C)NC(=O)NC1=O (stereo not drawn) [MEH, 5-ethyl-5-methylhydantoin]",mitigation of halogen decomposition,"[1]; compared with cyanuric acid, Example 5",greatest mitigation of halogen decomposition
same,log reduction of bacteria,[4],3 log
same,efficacy enhancement over sodium hypochlorite alone,[4],dramatically increased NaOCl efficacy
